Laboratory results reported in patent US20090155209A1, “NOVEL MACROCYCLIC INHIBITORS OF HEPATITIS C VIRUS REPLICATION” (priority 2007, published 2009).

Key:
NS3-NS4 [1] = target: T1, NS3-NS4 (Hepatitis C virus genotype 1a, UniProt P27958); assay: NS3-NS4 activity, IC50 (Example 37, Table 8); format: biochemical
NS3-NS4 [2] = target: T1, NS3-NS4; assay: cell-based; conditions: EC50, NS3-NS4 activity

T1 sequence (P27958 1027-1657): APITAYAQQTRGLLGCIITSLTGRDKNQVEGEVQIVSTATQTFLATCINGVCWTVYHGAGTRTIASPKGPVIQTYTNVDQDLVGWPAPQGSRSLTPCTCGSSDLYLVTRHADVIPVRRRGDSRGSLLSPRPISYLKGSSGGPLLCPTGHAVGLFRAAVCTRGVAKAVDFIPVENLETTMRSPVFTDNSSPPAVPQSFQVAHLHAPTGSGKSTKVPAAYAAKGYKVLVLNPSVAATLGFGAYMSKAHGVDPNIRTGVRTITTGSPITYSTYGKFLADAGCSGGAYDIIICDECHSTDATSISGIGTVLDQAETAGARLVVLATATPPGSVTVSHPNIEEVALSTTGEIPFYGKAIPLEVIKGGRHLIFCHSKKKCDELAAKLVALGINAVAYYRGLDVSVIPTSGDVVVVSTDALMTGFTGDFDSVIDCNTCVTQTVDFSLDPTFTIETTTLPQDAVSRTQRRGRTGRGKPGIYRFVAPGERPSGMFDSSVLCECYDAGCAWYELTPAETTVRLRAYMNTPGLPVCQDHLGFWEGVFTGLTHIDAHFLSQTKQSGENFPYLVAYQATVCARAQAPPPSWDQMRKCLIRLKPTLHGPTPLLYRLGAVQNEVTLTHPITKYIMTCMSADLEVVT
T1 sequence (P27958 1658-1711): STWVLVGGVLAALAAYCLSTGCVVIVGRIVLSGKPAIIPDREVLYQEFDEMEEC

| Compound | IC50 (NS3-NS4 [1]) | EC50 (NS3-NS4 [2]) |
| --- | --- | --- |
| CC(C)(C)OC(=O)N[C@H]1CCCCC/C=C\C2CC2(C(=O)NOc2ccccc2)NC(=O)[C@@H]2C[C@@H](OC(=O)N3Cc4cccc(F)c4C3)CN2C1=O (stereo in doubt) [Compound 101, (2R,6S,13aS,14aR,16aS,Z)-6-(tert-butoxycarbonylamino)-5,16-dioxo-14a-(phenoxycarbamoyl)-1,2,3,5,6,7,8,9,10,11,13a,14,14a,15,16,16a-hexadecahydrocyclopropa[e]pyrrolo[1,2-a][1,4]diazacyclopentadecin-2-yl 4-fluoroisoindoline-2-carboxylate] | < 100 nM | < 100 nM |
| CC(C)(C)OC(=O)N[C@H]1CCCCC/C=C\[C@@H]2C[C@@]2(C(=O)NOCC2CC2)NC(=O)[C@@H]2C[C@@H](OC(=O)N3Cc4cccc(F)c4C3)CN2C1=O [Compound 102, (2R,6S,13aS,14aR,16aS,Z)-6-(tert-butoxycarbonylamino)-14a-(cyclopropylmethoxycarbamoyl)-5,16-dioxo-1,2,3,5,6,7,8,9,10,11,13a,14,14a,15,16,16a-hexadecahydrocyclopropa[e]pyrrolo[1,2-a][1,4]diazacyclopentadecin-2-yl 4-fluoroisoindoline-2-carboxylate] | – | < 100 nM |
| CC(C)(C)ONC(=O)[C@@]12C[C@H]1/C=C\CCCCC[C@H](NC(=O)OC(C)(C)C)C(=O)N1C[C@H](OC(=O)N3Cc4cccc(F)c4C3)C[C@H]1C(=O)N2 [Compound 103, (2R,6S,13aS,14aR,16aS,Z)-14a-(tert-butoxycarbamoyl)-6-(tert-butoxycarbonylamino)-5,16-dioxo-1,2,3,5,6,7,8,9,10,11,13a,14,14a,15,16,16a-hexadecahydrocyclopropa[e]pyrrolo[1,2-a][1,4]diazacyclopentadecin-2-yl 4-fluoroisoindoline-2-carboxylate] | – | < 100 nM |
| CONC(=O)[C@@]12C[C@H]1/C=C\CCCCC[C@H](NC(=O)OC(C)(C)C)C(=O)N1C[C@H](OC(=O)N3Cc4cccc(F)c4C3)C[C@H]1C(=O)N2 [Compound 104, (2R,6S,13aS,14aR,16aS,Z)-6-(tert-butoxycarbonylamino)-14a-(methoxycarbamoyl)-5,16-dioxo-1,2,3,5,6,7,8,9,10,11,13a,14,14a,15,16,16a-hexadecahydrocyclopropa[e]pyrrolo[1,2-a][1,4]diazacyclopentadecin-2-yl 4-fluoroisoindoline-2-carboxylate] | < 100 nM | 1000 to 10000 nM |
| CC(C)(C)OC(=O)N[C@H]1CCCCC/C=C\[C@@H]2C[C@@]2(C(=O)NOCc2ccc(C(F)(F)F)cc2)NC(=O)[C@@H]2C[C@@H](OC(=O)N3Cc4cccc(F)c4C3)CN2C1=O [Compound 105, (2R,6S,13aS,14aR,16aS,Z)-6-(tert-butoxycarbonylamino)-5,16-dioxo-14a-(4-(trifluoromethyl)benzyloxycarbamoyl)-1,2,3,5,6,7,8,9,10,11,13a,14,14a,15,16,16a-hexadecahydrocyclopropa[e]pyrrolo[1,2-a][1,4]diazacyclopentadecin-2-yl 4-fluoroisoindoline-2-carboxylate] | < 100 nM | 10000 to 50000 nM |
| CC(C)(C)OC(=O)N[C@H]1CCCCC/C=C\[C@@H]2C[C@@]2(C(=O)NOCCO)NC(=O)[C@@H]2C[C@@H](OC(=O)N3Cc4cccc(F)c4C3)CN2C1=O [Compound 106] | < 100 nM | 100 to 1000 nM |
| CC(C)(C)OC(=O)N[C@H]1CCCCC/C=C\[C@@H]2C[C@@]2(C(=O)NOCc2ccccc2)NC(=O)[C@@H]2C[C@@H](OC(=O)N3Cc4cccc(F)c4C3)CN2C1=O [Compound 107] | < 100 nM | 1000 to 10000 nM |
| CC(C)(C)ONC(=O)[C@@]12C[C@H]1/C=C\CCCCC[C@H](NC(=O)OC(C)(C)C)C(=O)N1C[C@H](OC(=O)N3Cc4cccc(Cl)c4C3)C[C@H]1C(=O)N2 [Compound 108] | < 100 nM | < 100 nM |
| C[C@H](O)CONC(=O)[C@@]12C[C@H]1/C=C\CCCCC[C@H](NC(=O)OC(C)(C)C)C(=O)N1C[C@H](OC(=O)N3Cc4cccc(F)c4C3)C[C@H]1C(=O)N2 [Compound 110] | < 100 nM | < 100 nM |
| CC(C)c1cnc(N[C@H]2CCCCC/C=C\[C@@H]3C[C@@]3(C(=O)NS(=O)(=O)C3CC3)NC(=O)[C@@H]3C[C@@H](OC(=O)N4Cc5cccc(F)c5C4)CN3C2=O)s1 [Compound 201, (2R,6S,13aS,14aR,16aS,Z)-14a-(cyclopropylsulfonylcarbamoyl)-6-(5-isopropylthiazol-2-ylamino)-5,16-dioxo-1,2,3,5,6,7,8,9,10,11,13a,14,14a,15,16,16a-hexadecahydrocyclopropa[e]pyrrolo[1,2-a][1,4]diazacyclopentadecin-2-yl 4-fluoroisoindoline-2-carboxylate] | < 100 nM | < 100 nM |
| CC(C)(C)O[C@@H]1C[C@H]2C(=O)N[C@]3(C(=O)NS(=O)(=O)C4CC4)C[C@H]3/C=C\CCCCC[C@H](Nc3ncc(-c4ccccc4)s3)C(=O)N2C1 [Compound 202, (2R,6S,13aS,14aR,16aS,Z)-2-tert-butoxy-N-(cyclopropylsulfonyl)-5,16-dioxo-6-(5-phenylthiazol-2-ylamino)-1,2,3,5,6,7,8,9,10,11,13a,14,14a,15,16,16a-hexadecahydrocyclopropa[e]pyrrolo[1,2-a][1,4]diazacyclopentadecine-14a-carboxamide] | < 100 nM | 100 to 1000 nM |
| CC(=O)O[C@@H]1C[C@H]2C(=O)N[C@]3(C(=O)NS(=O)(=O)C4CC4)C[C@H]3/C=C\CCCCC[C@H](Nc3ncc(-c4ccccc4)s3)C(=O)N2C1 [Compound 203, (2R,6S,13aS,14aR,16aS,Z)-14a-(cyclopropylsulfonylcarbamoyl)-5,16-dioxo-6-(5-phenylthiazol-2-ylamino)-1,2,3,5,6,7,8,9,10,11,13a,14,14a,15,16,16a-hexadecahydrocyclopropa[e]pyrrolo[1,2-a][1,4]diazacyclopentadecin-2-yl acetate] | < 100 nM | 1000 to 10000 nM |
| O=C1N[C@]2(C(=O)NS(=O)(=O)C3CC3)C[C@H]2/C=C\CCCCC[C@H](Nc2nc(-c3ccc(F)cc3)cs2)C(=O)N2C[C@H](Oc3nc(-c4ccccc4)nc4ccccc34)C[C@@H]12 [Compound 204, (2R,6S,13aS,14aR,16aS,Z)-N-(cyclopropylsulfonyl)-6-(4-(4-fluorophenyl)thiazol-2-ylamino)-5,16-dioxo-2-(2-phenylquinazolin-4-yloxy)-1,2,3,5,6,7,8,9,10,11,13a,14,14a,15,16,16a-hexadecahydrocyclopropa[e]pyrrolo[1,2-a][1,4]diazacyclopentadecine-14a-carboxamide] | < 100 nM | < 100 nM |
| O=C1N[C@]2(C(=O)NS(=O)(=O)C3CC3)C[C@H]2/C=C\CCCCC[C@H](Nc2nc3c(s2)CCC3)C(=O)N2C[C@H](OC(=O)N3Cc4cccc(F)c4C3)C[C@@H]12 [Compound 206] | < 100 nM | 100 to 1000 nM |
| O=C1N[C@]2(C(=O)NS(=O)(=O)C3CC3)C[C@H]2/C=C\CCCCC[C@H](Nc2nc(-c3ccc(Cl)cc3)cs2)C(=O)N2C[C@H](OC(=O)N3Cc4cccc(F)c4C3)C[C@@H]12 [Compound 207] | < 100 nM | < 100 nM |
| O=C1N[C@]2(C(=O)NS(=O)(=O)C3CC3)C[C@H]2/C=C\CCCCC[C@H](Nc2nc(-c3ccc(F)cc3)cs2)C(=O)N2C[C@H](OC(=O)N3Cc4cccc(F)c4C3)C[C@@H]12 [Compound 208] | < 100 nM | < 100 nM |
| O=C1N[C@]2(C(=O)NS(=O)(=O)C3CC3)C[C@H]2/C=C\CCCCC[C@H](Nc2nc(-c3ccccc3Cl)cs2)C(=O)N2C[C@H](OC(=O)N3Cc4cccc(F)c4C3)C[C@@H]12 [Compound 209] | < 100 nM | < 100 nM |
| O=C1N[C@]2(C(=O)NS(=O)(=O)C3CC3)C[C@H]2/C=C\CCCCC[C@H](Nc2nc(-c3ccncc3)cs2)C(=O)N2C[C@H](OC(=O)N3Cc4cccc(F)c4C3)C[C@@H]12 [Compound 210] | < 100 nM | < 100 nM |
| N#Cc1ccc(-c2csc(N[C@H]3CCCCC/C=C\[C@@H]4C[C@@]4(C(=O)NS(=O)(=O)C4CC4)NC(=O)[C@@H]4C[C@@H](OC(=O)N5Cc6cccc(F)c6C5)CN4C3=O)n2)cc1 [Compound 211] | < 100 nM | < 100 nM |
| O=C1N[C@]2(C(=O)NS(=O)(=O)C3CC3)C[C@H]2/C=C\CCCCC[C@H](Nc2nc(-c3ccccn3)cs2)C(=O)N2C[C@H](OC(=O)N3Cc4cccc(F)c4C3)C[C@@H]12 [Compound 212] | < 100 nM | < 100 nM |
| CS(=O)(=O)c1ccc(-c2csc(N[C@H]3CCCCC/C=C\[C@@H]4C[C@@]4(C(=O)NS(=O)(=O)C4CC4)NC(=O)[C@@H]4C[C@@H](OC(=O)N5Cc6cccc(F)c6C5)CN4C3=O)n2)cc1 [Compound 213] | < 100 nM | < 100 nM |
| CC(C)(C)OC(=O)N[C@H]1CCCCC/C=C\[C@@H]2C[C@@]2(C(=O)NS(=O)(=O)c2ccc(Cl)s2)NC(=O)[C@@H]2C[C@@H](OC(=O)N3Cc4cccc(F)c4C3)CN2C1=O [Compound 323] | – | < 100 nM |
| CCC(C)(C)OC(=O)N[C@H]1CCCCC/C=C\[C@@H]2C[C@@]2(C(=O)NS(=O)(=O)C2CC2)NC(=O)[C@@H]2C[C@@H](OC(=O)N3Cc4cccc(F)c4C3)CN2C1=O [Compound 431] | – | < 100 nM |
| CCC(C)(C)OC(=O)N[C@H]1CCCCC/C=C\[C@@H]2C[C@@]2(C(=O)NS(=O)(=O)C2CC2)NC(=O)[C@@H]2C[C@@H](OC(=O)N3Cc4cccc(F)c4C3)CN2C1=O [Compound 438] | – | 100 to 1000 nM |
| CC(C)(C)OC(=O)N[C@H]1CCCCC/C=C\[C@@H]2C[C@@]2(C(=O)NOCC2CC2)NC(=O)[C@@H]2C[C@@H](OC(=O)N3Cc4cccc(F)c4C3)CN2C1=O [Compound 717] | < 100 nM | – |
| Cc1ccccc1ONC(=O)[C@@]12C[C@H]1CCCCCCC[C@H](NC(=O)OC(C)(C)C)C(=O)N1C[C@H](OC(=O)N3Cc4cccc(F)c4C3)C[C@H]1C(=O)N2 [Compound 804] | < 100 nM | – |
| CC(C)(C)OC(=O)N[C@H]1CCCCCC2CC2[C@@H]2C[C@@]2(C(=O)NOc2ccccc2)NC(=O)[C@@H]2C[C@@H](OC(=O)N3Cc4cccc(F)c4C3)CN2C1=O (some centres unmarked) [Compound 906] | < 100 nM | – |
| CC(C)(C)OC(=O)N[C@H]1CCCCCC2C([C@@H]3C[C@@]3(C(=O)NS(=O)(=O)C3CC3)NC(=O)[C@@H]3C[C@@H](OC(=O)N4Cc5cccc(F)c5C4)CN3C1=O)C2(Cl)Cl (some centres unmarked) [Compound 907] | 100 to 1000 nM | – |
